These are literature values, as cited in US20010036658A1, “Culture media for growing spirochetes” (priority 1997, published 2001).

Where two headings read alike, the source gives them in different places.

Take `COc1cccc2c1C(=O)c1c(O)c3c(c(O)c1C2=O)C[C@@](O)(C(=O)CO)C[C@@H]3O[C@H]1C[C@H](N)[C@H](O)[C@H](C)O1` [doxorubicin]: the figures for the anti-bacterial activity entry in the data set with L-forms of bacteria (certain L-forms of bacteria) and in the data set with L-forms of bacteria (parent forms of the same bacteria) were “dramatic anti-bacterial activity” and “without any demonstrable effect”, respectively. Besides, the “conversion of normal erythrocytes to echinocytes” value with erythrocytes is listed as “prevents”.
